Test results published in the supplement of paper PMC10307832.

Columns and labels:
Assay in all cases: relative viability (nuclei count vs DMSO), 5 days (fraction); higher = more cells survive
Ibrutinib + Phenformin = compound: C=CC(=O)N1CCC[C@@H](n2nc(-c3ccc(Oc4ccccc4)cc3)c3c(N)ncnc32)C1 [Ibrutinib] + N=C(N)NC(=N)NCCc1ccccc1 [Phenformin] (partner 250 µM)
In short: (§1)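 The day after seeding in 1536-well plates, lung cancer cell lines were treated by pin tool with a single drug, or with a fixed anchor-drug dose together with five library-drug doses (not always all listed) in √10 steps. After 5 days, a combined fix-and-stain solution (final 0.05% Triton X-100, 1% formaldehyde, 1 ug/ml Hoechst) was added. Nuclei counted on 4× images gave relative viability as treated counts over vehicle counts, reported as the median of duplicate plates.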

PAC-1 + Phenformin = compound: C=CCc1cccc(/C=N/NC(=O)CN2CCN(Cc3ccccc3)CC2)c1O [PAC-1] + N=C(N)NC(=N)NCCc1ccccc1 [Phenformin] (partner 250 µM)
In short: as §1

PAC-1 + Olaparib = compound: C=CCc1cccc(/C=N/NC(=O)CN2CCN(Cc3ccccc3)CC2)c1O [PAC-1] + O=C(c1cc(Cc2n[nH]c(=O)c3ccccc23)ccc1F)N1CCN(C(=O)C2CC2)CC1 [Olaparib] (partner 8 µM)
In short: as §1

BMX-IN-1 + Lapatinib = compound: C=CC(=O)Nc1cc(-n2c(=O)ccc3cnc4ccc(-c5ccc(NS(C)(=O)=O)cc5)cc4c32)ccc1C [BMX-IN-1] + CS(=O)(=O)CCNCc1ccc(-c2ccc3ncnc(Nc4ccc(OCc5cccc(F)c5)c(Cl)c4)c3c2)o1 [Lapatinib] (partner 2 µM)
In short: as §1

| Cell Line | relative viability (Ibrutinib + Phenformin; first compound 0.005 µM) | relative viability (Ibrutinib + Phenformin; first compound 0.01581 µM) | relative viability (Ibrutinib + Phenformin; first compound 0.05 µM) | relative viability (Ibrutinib + Phenformin; first compound 0.1581 µM) | relative viability (Ibrutinib + Phenformin; first compound 0.5 µM) | relative viability (PAC-1 + Phenformin; first compound 0.02 µM) | relative viability (PAC-1 + Phenformin; first compound 0.06325 µM) | relative viability (PAC-1 + Phenformin; first compound 0.2 µM) | relative viability (PAC-1 + Phenformin; first compound 2 µM) | relative viability (PAC-1 + Olaparib; first compound 0.02 µM) | relative viability (PAC-1 + Olaparib; first compound 0.06325 µM) | relative viability (PAC-1 + Olaparib; first compound 0.2 µM) | relative viability (PAC-1 + Olaparib; first compound 2 µM) | relative viability (BMX-IN-1 + Lapatinib; first compound 0.02 µM) | relative viability (BMX-IN-1 + Lapatinib; first compound 0.2 µM) | relative viability (BMX-IN-1 + Lapatinib; first compound 0.6325 µM) | relative viability (BMX-IN-1 + Lapatinib; first compound 2 µM) |
| --- | --- | --- | --- | --- | --- | --- | --- | --- | --- | --- | --- | --- | --- | --- | --- | --- | --- |
| LCLC-103H | 0.334 | 0.282 | 0.3 | 0.369 | 0.275 | 0.347 | 0.322 | 0.365 | 0.341 | 0.771 | 0.824 | 0.761 | 0.745 | – | – | – | – |
| RERF-LC-KJ | 0.394 | 0.389 | 0.379 | 0.407 | 0.356 | 0.414 | 0.392 | 0.407 | 0.427 | 0.891 | 0.86 | 0.929 | 0.83 | 0.876 | 0.944 | 0.963 | 0.918 |
| NCI-H1650 | 0.403 | 0.358 | 0.353 | 0.348 | 0.287 | 0.427 | 0.478 | 0.411 | 0.42 | 0.709 | 0.751 | 0.726 | 0.674 | 0.666 | 0.941 | 0.88 | 0.77 |
| NCI-H1355 | 0.419 | 0.463 | 0.485 | 0.469 | 0.427 | 0.461 | 0.517 | 0.431 | 0.438 | 0.78 | 0.693 | 0.724 | 0.74 | 1.14 | 1.09 | 1.08 | 0.982 |
| NCI-H2085 | 0.584 | 0.691 | 0.616 | 0.589 | 0.495 | 0.747 | 0.757 | 0.723 | 0.815 | 0.728 | 0.74 | 0.74 | 0.831 | 0.831 | 0.821 | 0.764 | 0.763 |
| NCI-H650 | 0.457 | 0.456 | 0.372 | 0.492 | 0.493 | 0.469 | 0.452 | 0.403 | 0.444 | 0.328 | 0.41 | 0.387 | 0.381 | 0.862 | 1.11 | 0.982 | 0.858 |
| NCI-H460 | 0.636 | 0.46 | 0.463 | 0.572 | 0.592 | 0.503 | 0.528 | 0.483 | 0.575 | 0.4 | 0.457 | 0.466 | 0.369 | – | 1.36 | 1.75 | 1.1 |
| NCI-H1666 | 0.597 | 0.59 | 0.547 | 0.561 | 0.571 | 0.589 | 0.559 | 0.695 | 0.549 | 0.688 | 0.745 | 0.75 | 0.729 | 0.772 | 0.626 | 0.663 | 0.444 |
| LK-2 | – | 0.529 | 0.396 | 0.357 | 0.282 | 0.258 | 0.479 | 0.381 | 0.559 | 0.774 | 0.704 | 0.673 | 0.837 | 1.1 | 1.37 | 0.68 | 0.924 |
| NCI-H2009 | 0.558 | 0.476 | 0.518 | 0.476 | 0.499 | 0.473 | 0.481 | 0.451 | 0.484 | 0.681 | 0.655 | 0.677 | 0.652 | 0.661 | 1.04 | 1.1 | 0.893 |
| COR-L 105 | 0.455 | 0.348 | 0.406 | 0.531 | 0.242 | 0.465 | 0.484 | 0.428 | 0.455 | 0.753 | 0.723 | 0.631 | 0.789 | 0.327 | 0.33 | 0.376 | 0.371 |
| Calu-6 | – | – | – | – | – | – | – | – | – | 0.546 | 0.585 | – | 0.61 | 1 | 1.44 | 1.33 | 1.06 |
| NCI-H1703 | – | – | – | – | – | – | – | – | – | 0.376 | 0.401 | 0.388 | 0.341 | 1.69 | 1.24 | 1.31 | 0.677 |
| IA-LM | – | – | – | – | – | – | – | – | – | 0.806 | 0.964 | 0.952 | 0.833 | 0.925 | 0.902 | 0.994 | 0.867 |
| NCI-H1623 | 0.571 | 0.532 | 0.509 | 0.347 | 0.27 | 0.6 | 0.565 | 0.592 | 0.602 | – | – | – | – | – | – | – | – |
| ChaGo-K-1 | 0.543 | 0.462 | 0.433 | 0.407 | 0.494 | 0.462 | 0.493 | 0.513 | 0.439 | 0.419 | 0.412 | 0.416 | 0.404 | – | – | – | – |
| NCI-H2342 | 0.472 | 0.56 | 0.57 | 0.455 | 0.452 | 0.552 | 0.474 | 0.579 | 0.611 | 0.442 | 0.474 | 0.367 | 0.525 | – | – | – | – |
| NCI-H522 | 0.627 | 0.545 | 0.688 | 0.582 | 0.622 | 0.78 | 0.662 | 0.693 | 0.631 | 0.591 | 0.643 | 0.619 | 0.626 | – | – | – | – |
| NCI-H441 | 1.01 | 0.82 | 0.912 | 0.988 | 1.01 | 0.881 | 0.993 | 0.705 | 0.752 | 0.468 | 0.69 | 0.483 | 0.491 | – | – | – | – |
| NCI-H1648 | – | – | – | – | – | – | – | – | – | 0.573 | 0.646 | 0.889 | 0.832 | – | – | – | – |
